In US12384777B2 (Tay Therapeutics Limited, priority 2019, dated 2025):
Where two headings read alike, the source gives them in different places.

Experiments:
[1] = target: BRD4 BD1 (Homo sapiens (Human), UniProt O60885); assay: Bromodomain binding assay (T7 phage display, qPCR), BRD4 BD1; details: read-out: BRD4 BD1 Kd
Experimental: (§1) T7 phage strains displaying bromodomains were grown in parallel in 24-well blocks in an E. coli host derived from the BL21 strain. E. coli were grown to log-phase and infected with T7 phage from a frozen stock (multiplicity of infection=0.4) and incubated with shaking at 32° C. until lysis (90-150 min). The lysates were centrifuged (5,000×g) and filtered (0.2 μm) to remove cell debris. Streptavidin-coated magnetic beads were treated with biotinylated small molecule or acetylated peptide ligands for 30 min at RT to generate affinity resins for bromodomain assays. The ligated beads were blocked with excess biotin and washed with blocking buffer (SeaBlock (Pierce), 1% BSA, 0.05% Tween 20, 1 mM DTT) to remove unbound ligand and to reduce non-specific phage binding. Binding reactions were assembled by combining bromodomains, ligated affinity beads, and test compounds in 1× binding buffer (16% SeaBlock, 0.32×PBS, 0.02% BSA, 0.04% Tween 20, 0.004% Sodium azide, 7.9 mM DTT). Test compounds were prepared as 1000× stocks in 100% DMSO and subsequently diluted 1:25 in MEG. The compounds were then diluted directly into the assays such that the final concentrations of DMSO and MEG were 0.1% and 2.4%, respectively. All reactions were performed in polypropylene 384-well plates in a final volume of 0.02 ml. The assay plates were incubated at RT with shaking for 1 hr and the affinity beads were washed with wash buffer (1×PBS, 0.05% Tween 20). The beads were then re-suspended in elution buffer (1×PBS, 0.05% Tween 20, 2 μM non-biotinylated affinity ligand) and incubated at RT with shaking for 30 min. The bromodomain concentration in the eluates was measured by quantitative polymerase chain reaction (qPCR).
(§2) An 11-point 3-fold serial dilution of each test compound was prepared in 100% DMSO at 1000× final test concentration. All compounds were distributed by acoustic transfer (non-contact dispensing) in 100% DMSO. The compounds were then diluted directly into the assays such that the final concentration of DMSO was 0.09%. Most dissociation constants were determined using a compound top concentration=10,000 nM. If the initial dissociation constant determined was <0.169 nM (the lowest concentration tested), the measurement was repeated with a serial dilution starting at a lower top concentration.
(§3) The same bromodomain assay procedure as that outlined above was used. Example compounds were screened at 30 times their Kd, and results for primary screen binding interactions are reported as ‘% Ctrl’, where lower numbers indicate stronger hits in the matrix.

[2] = tested on: human liver hepatocytes; assay: Intrinsic clearance in human liver hepatocytes; assay type: in vitro ADME; details: human cryopreserved hepatocytes, 0.5 μM test compound
Experimental: Vials of human cryopreserved hepatocytes, supplied by Life Technologies, were thawed according to manufacturer's instructions and cells re-suspended in Williams Medium E (WME) containing cell maintenance supplement pack (CM4000, Life Technologies). Hepatocytes were incubated in suspension (0.5 million cells/mL) in 48 well non-collagen coated cell culture plates for 10 min at 37° C., 5% CO2. Upon addition of an equal volume of supplemented WME containing 1 μM test compound, an aliquot of incubation solution was removed to acetonitrile containing internal standard (final concentration 0.5 μM test compound and a cell density of 0.25 million cells/mL). Similarly, aliquots were removed at 3, 6, 9, 15, 30, 45, 60, 90 and 120 min. 100 μL of 80:20 water:acetonitrile was added to all samples and the analysis plate was centrifuged for 10 min at RT prior to injection and analysis of samples by UPLC-MS/MS. The response (area ratio of test compound to internal standard) was plotted against time using an exponential decay model from which rate of disappearance was calculated.

[3] = tested on: CD4+ T-cells stimulated by CD2, CD3 and CD28 antibodies; assay: Cellular activity IL-4: reduction of IL-4 levels in activated CD4+ T-cells; assay type: cell-based, human
Experimental: • 1. CD4^+ T-cells are isolated from cryopreserved human peripheral blood mononuclear cells (PBMCs) using EasySep™ Kit (Cat. No. 17952, Stemcell Technologies). • 2. CD2, CD3 and CD28 antibodies coated beads from T cell Activation/Expansion Kit (Cat. No. 130-091-441, Miltenyi Biotec) are added to the CD4^+ T-cells at a bead-to-cell ratio of 1:2. • 3. CD4^+ T-cells along with the beads are seeded at 2×10^5 cells/well in a round bottom 96-well plate and treated with different compounds and controls in a total volume of 200 μl. • 4. The cells are cultured for 48 hrs at 37° C., 5% CO2. • 5. Supernatant is collected and IL-4 is analysed by ELISA.

[4] = target: BRD4 BD2 (Homo sapiens (Human), UniProt O60885); assay: Bromodomain binding assay (T7 phage display, qPCR), BRD4 BD2; details: read-out: BRD4 BD2 Kd
Experimental: as §1, §2, §3

[5] = Homo sapiens, T-cell, 48 hrs, ELISA, read-out: EC50 reduction of IL-4 levels
[6] = Homo sapiens, T-cell, read-out: cellular EC50 values, reduction of IL-4 levels

Kd [1] [nM]	Intrinsic clearance, % Liver Blood Flow [2] [% Liver Blood Flow]	EC50 [3, 5] [nM]	Kd [4] [nM]	EC50 [3, 6] [nM]	SMILES	EC50 ([3]; 48 hrs, ELISA, read-out: EC50 reduction of IL-4 levels) [nM]
10 to 100	45	100 to 1000	–	–	Cn1cc(Oc2cccc(O)c2)c(-c2cn(C)c(=O)c3[nH]ccc23)cc1=O [Example 24, 4-(5-(3-hydroxyphenoxy)-1-methyl-2-oxo-1,2-dihydropyridin-4-yl)-6-methyl-1,6-dihydro-7H-pyrrolo[2,3-c]pyridin-7-one]	–
10 to 100	80	10 to 100	≤ 10	< 100	Cn1cc(-c2scnc2Oc2ccccc2)c2cc[nH]c2c1=O [Example 4, 6-methyl-4-(4-phenoxythiazol-5-yl)-1,6-dihydro-7H-pyrrolo[2,3-c]pyridin-7-one]	–
> 1000	38	100 to 1000	10 to 100	–	Cc1cc(F)cc(C)c1Oc1c(-c2cn(C)c(=O)c3[nH]c(C(=O)NC(C)(C)C(F)(F)F)cc23)ccn(C)c1=O [Example 43]	–
100 to 1000	89	10 to 100	10 to 100	< 100	CCCOc1ncsc1-c1cn(C)c(=O)c2[nH]ccc12 [Example 46, 6-methyl-4-(4-propoxythiazol-5-yl)-1,6-dihydro-7H-pyrrolo[2,3-c]pyridin-7-one]	–
10 to 100	<34	10 to 100	≤ 10	< 100	Cn1cc(Oc2ccccc2)c(-c2cn(C)c(=O)c3[nH]ccc23)cc1=O [Example 7, 6-methyl-4-(1-methyl-2-oxo-5-phenoxy-1,2-dihydropyridin-4-yl)-1,6-dihydro-7H-pyrrolo[2,3-c]pyridin-7-one]	–
10 to 100	95	100 to 1000	–	–	Cn1cc(-c2cc(O)ccc2Oc2ccccc2)ccc1=O [Example 8, 5-(5-hydroxy-2-phenoxyphenyl)-1-methyl pyridin-2(1H)-one]	–
> 1000	<34	100 to 1000	≤ 10	–	Cc1cc(F)cc(C)c1Oc1c(-c2cn(C)c(=O)c3[nH]c(C(=O)NC(C)(C)C)cc23)ccn(C)c1=O [Example 42, N-(tert-butyl)-4-(3-(4-fluoro-2,6-dimethylphenoxy)-1-methyl-2-oxo-1,2-dihydropyridin-4-yl)-6-methyl-7-oxo-6,7-dihydro-1H-pyrrolo[2,3-c]pyridine-2-carboxamide]	–
100 to 1000	69	> 1000	–	–	Cn1cc(-c2scnc2Oc2ccccc2)ccc1=O [Example 18, 1-methyl-5-(4-phenoxythiazol-5-yl)pyridin-2(1H)-one]	–
> 1000	34	100 to 1000	10 to 100	–	Cc1cc(F)cc(C)c1Oc1c(-c2cn(C)c(=O)c3[nH]c(C(=O)NC4(C)CC4(F)F)cc23)ccn(C)c1=O (stereo not drawn) [Example 44, N-(2,2-difluoro-1-methylcyclopropyl)-4-(3-(4-fluoro-2,6-dimethylphenoxy)-1-methyl-2-oxo-1,2-dihydropyridin-4-yl)-6-methyl-7-oxo-6,7-dihydro-1H-pyrrolo[2,3-c]pyridine-2-carboxamide]	–

The next lines start with the molecule.

SMILES	Kd [1] [nM]	Intrinsic clearance, % Liver Blood Flow [2] [% Liver Blood Flow]	EC50 [3, 5] [nM]	Kd [4] [nM]	EC50 [3, 6] [nM]	EC50 ([3]; 48 hrs, ELISA, read-out: EC50 reduction of IL-4 levels) [nM]
Cc1cc(F)cc(C)c1Oc1c(-c2cn(C)c(=O)c3[nH]ccc23)ccn(C)c1=O [Example 40, 4-(3-(4-fluoro-2,6-dimethylphenoxy)-1-methyl-2-oxo-1,2-dihydropyridin-4-yl)-6-methyl-1,6-dihydro-7H-pyrrolo[2,3-c]pyridin-7-one]	100 to 1000	<34	100 to 1000	10 to 100	–	–
Cc1cc(F)cc(C)c1Oc1c(-c2cn(C)c(=O)c3[nH]ccc23)ccn(C)c1=O [Example 47, 4-(3-(4-fluoro-2,6-dimethylphenoxy)-1-methyl-2-oxo-1,2-dihydropyridin-4-yl)-6-methyl-1,6-dihydro-7H-pyrrolo[2,3-c]pyridin-7-one]	–	–	–	≤ 10	–	100 to 1000
Cn1cc(-c2cc(O)ccc2OC2CCC2)c2cc[nH]c2c1=O [Example 10, 4-(2-cyclobutoxy-5-hydroxyphenyl)-6-methyl-1,6-dihydro-7H-pyrrolo[2,3-c]pyridin-7-one]	≤ 10	93	10 to 100	–	< 100	–
Cn1cc(-c2scnc2Oc2ccc(O)cc2)c2cc[nH]c2c1=O [Example 20, 4-(4-(4-hydroxyphenoxy)thiazol-5-yl)-6-methyl-1,6-dihydro-7H-pyrrolo[2,3-c]pyridin-7-one]	10 to 100	–	10 to 100	–	< 100	–
Cn1cc(-c2scnc2OC2CCC2)c2cc[nH]c2c1=O [Example 45, 4-(4-cyclobutoxythiazol-5-yl)-6-methyl-1,6-dihydro-7H-pyrrolo[2,3-c]pyridin-7-one]	100 to 1000	86	–	10 to 100	–	–
Cn1ccc(-c2cn(C)c(=O)c3[nH]ccc23)c(Oc2ccccc2)c1=O [Example 5, 6-methyl-4-(1-methyl-2-oxo-3-phenoxy-1,2-dihydropyridin-4-yl)-1,6-dihydro-7H-pyrrolo[2,3-c]pyridin-7-one]	10 to 100	<34	≤ 10	≤ 10	< 100	–
Cc1cc(F)cc(C)c1Oc1c(-c2ccc(=O)n(C)c2)ccn(C)c1=O [Example 39, 3′-(4-fluoro-2,6-dimethylphenoxy)-1,1′-dimethyl-[3,4′-bipyridine]-2′,6(1H,1′H)-dione]	> 1000	–	> 1000	100 to 1000	–	–
